For data set [1] the following is noted: subcutaneous dosing, unpublished data.
The nature of data set [2]: Study ZPS-603 Cohort 4: mood ratings (HAMA, FQ, MADRS) in patients with TRD/TRA. Format: in vivo, human. Conditions: study 603 cohort 4 participants (FIG. 7). The method, then:
The objective of Cohort 4 was to evaluate efficacy, safety, PK and PD of an extended release ketamine oral formulation in patients with treatment-resistant depression and/or treatment-resistant anxiety (TRD/TRA). […] The design was an open label multiple ascending dose study. The initial dose was 60 mg, and could be escalated by an additional 60 mg 12 hourly, based on assessment of mood symptoms, to a maximum dose of 240 mg, with a total of 7 doses given 12 hourly between 0 and 72 hours. Endpoints included safety, tolerability, ketamine and norketamine PK, and PD (mood ratings including the Fear Questionnaire (FQ; Marks 1979), HAMA and MADRS, and dissociative symptom rating scale scores).
Anxiety Rating Scales: HAMA and FQ: Individual and group mean HAMA and FQ scores by timepoint are shown in FIG. 6 (6A: HAMA; 6B: FQ) There was a consistent trend for both scores to decrease over time, most noticeably in patients with higher baseline scores. […] All seven participants were assessed to be treatment responders (>50% reduction) based on changes in
There was a consistent trend for scores to decrease over time, most noticeably in patients with higher baseline scores. All seven participants were assessed to be treatment responders (>50% reduction) based on change in MADRS scores. […]

The conditions of data set [3]: injected by any route of administration, e.g. Loo 2016; cited from earlier work.

Regarding `CNC1(c2ccccc2Cl)CCCCC1=O` (stereo not drawn) [Ketamine solution, 2-(2-chlorophenyl)-2-(methylamino) cyclohexan-1-one], the “Mean Tmax-ketamine” value in data set [1] was 38.4 min. In addition, in data set [2], the “onset of improvement of anxiety symptoms” value fell in the range of 1 to 2 h. The “duration of marked dissociative symptoms after dosing” value in data set [3] is listed as “up to 60 minutes”.

Source of the values: patent publication US20260034065A1, “EXTENDED RELEASE PHARMACEUTICAL FORMULATION” (Douglas Pharmaceuticals Ltd., priority 2020, published 2026).
